Test results as given in US20250235455A1, “AQUEOUS TICAGRELOR SOLUTIONS, METHOD OF MANUFACTURING AND USES” (HYLORIS DEVELOPMENTS SA, priority 2022, published 2025).

Experiments:
Format in all cases: physicochemical
Flocculation test = assay: Flocculation test
[1] = Impact of packaging on stability, HPβCD 32.5% w/w, 5 mM pH 7.5 phosphate buffer, 40° C./75% RH; conditions: for Assay: in %
Method: To study the potential impact of the packaging material on the stability of the ticagrelor-cyclodextrin inclusion complex a composition with 32.5% w/w HPβCD was prepared with procedures and precaution's similar to previous trials, samples were stored in transparent clear glass vials and amber colored glass vials at a temperature of 40° C./75% RH.

[2] = Bulk hold study, ticagrelor 8 mg/ml in 30% w/w HPβCD, phosphate buffer pH 7.5
Method: To investigate the impact of temperature and hold time, a new composition was prepared as per below Table 19.
In first step a phosphate buffer at pH 7.5 was prepared and the buffered solution was heated to 40° C.-45° C. HPβCD was added to the buffered solution under continuous mixing. […] It usually took 30 mins to 4 hours depending on batch size.
Then this solution was filtered through a 0.22-micron filter and packed in suitable clear or amber colored glass vials

[3] = Solubility of ticagrelor in aqueous vitamin E TPGS solutions
[4] = Amber colour USP Type I Glass vials, 1 M
[5] = Amber colour USP Type I Glass vials, 2 M
[6] = Amber colour USP Type I Glass vials, 3 M
[7] = Amber colour USP Type I Glass vials, T0
[8] = Clear USP Type I Glass vials, 1 M
[9] = Clear USP Type I Glass vials, 2 M
[10] = Clear USP Type I Glass vials, 3 M
[11] = Clear USP Type I Glass vials, T0

Structure (SMILES): CCCSc1nc(N[C@@H]2C[C@H]2c2ccc(F)c(F)c2)c2nnn([C@@H]3C[C@H](OCCO)[C@@H](O)[C@H]3O)c2n1 [Ticagrelor, (1S,2S,3R,5S)-3-{7-[(1R,2S)-2-(3,4-difluorophenyl)cyclopropylamino]5-(propylthio)-3H-(1,2,3)triazolo (4,5-D)pyrimidin-3-yl}-5-(2 hydroxyethoxy)cyclopentane-1,2-diol]
- Flocculation test (Flocculation test; HPβCD 25% w/w, ticagrelor 5 mg/ml): did not pass
- Flocculation test (Flocculation test; HPβCD 30% w/w, ticagrelor 5 mg/ml): passed
- Flocculation test (Flocculation test; HPβCD 35% w/w, ticagrelor 5 mg/ml): passed
- Flocculation test (Flocculation test; HPβCD 35% w/w, ticagrelor 10 mg/ml): did not pass
- Flocculation test (Flocculation test; HPβCD 40% w/w, ticagrelor 5 mg/ml): passed
- Flocculation test (Flocculation test; HPβCD 40% w/w, ticagrelor 10 mg/ml): passed
- Flocculation test (Flocculation test; SBECD 40% w/w, ticagrelor 5 mg/ml): passed
- Acetal impurity [1, 4]: 0.05%
- Amine impurity [1, 4]: 0.04%
- Description [1, 4]: clear
- Regiomer [1, 4]: 0.01%
- Sum Impurities >0.05 [1, 4]: 0.05%
- Total impurity [1, 4]: 0.22%
- Triol impurity [1, 4]: 0.02%
- pH [1, 4]: 7.70
- Assay [1, 4]: 100.24
- Acetal impurity [1, 5]: 0.04%
- Amine impurity [1, 5]: 0.04%
- Description [1, 5]: clear
- Regiomer [1, 5]: 0.02%
- Sum Impurities >0.05 [1, 5]: 0.00%
- Total impurity [1, 5]: 0.28%
- Triol impurity [1, 5]: 0.04%
- pH [1, 5]: 7.69
- Assay [1, 5]: 99.89
- Acetal impurity [1, 6]: 0.05%
- Amine impurity [1, 6]: 0.06%
- Description [1, 6]: clear
- Regiomer [1, 6]: 0.04%
- Sum Impurities >0.05 [1, 6]: 0.16%
- Total impurity [1, 6]: 0.33%
- Triol impurity [1, 6]: 0.05%
- pH [1, 6]: 7.66
- Assay [1, 6]: 98.93
- Acetal impurity [1, 7]: 0.05%
- Amine impurity [1, 7]: 0.04%
- Description [1, 7]: clear
- Regiomer [1, 7]: 0.00%
- Sum Impurities >0.05 [1, 7]: 0.18%
- Total impurity [1, 7]: 0.40%
- Triol impurity [1, 7]: 0.04%
- pH [1, 7]: 7.66
- Assay [1, 7]: 98.34
- Acetal impurity [1, 8]: 0.04%
- Amine impurity [1, 8]: 0.04%
- Description [1, 8]: clear
- Regiomer [1, 8]: 0.01%
- Sum Impurities >0.05 [1, 8]: 0.00%
- Total impurity [1, 8]: 0.22%
- Triol impurity [1, 8]: 0.03%
- pH [1, 8]: 7.65
- Assay [1, 8]: 101.71
- Acetal impurity [1, 9]: 0.04%
- Amine impurity [1, 9]: 0.04%
- Description [1, 9]: clear
- Regiomer [1, 9]: 0.02%
- Sum Impurities >0.05 [1, 9]: 0.05%
- Total impurity [1, 9]: 0.28%
- Triol impurity [1, 9]: 0.05%
- pH [1, 9]: 7.63
- Assay [1, 9]: 99.69
- Acetal impurity [1, 10]: 0.05%
- Amine impurity [1, 10]: 0.06%
- Description [1, 10]: clear
- Regiomer [1, 10]: 0.04%
- Sum Impurities >0.05 [1, 10]: 0.16%
- Total impurity [1, 10]: 0.33%
- Triol impurity [1, 10]: 0.05%
- pH [1, 10]: 7.58
- Assay [1, 10]: 98.25
- Acetal impurity [1, 11]: 0.05%
- Amine impurity [1, 11]: 0.04%
- Description [1, 11]: clear
- Regiomer [1, 11]: 0.00%
- Sum Impurities >0.05 [1, 11]: 0.22%
- Total impurity [1, 11]: 0.40%
- Triol impurity [1, 11]: 0.05%
- pH [1, 11]: 7.65
- Assay [1, 11]: 98.34
- Acetal impurity ([2]; Bulk hold 45° C., T = 1 h): 0.04%
- Amine impurity ([2]; Bulk hold 45° C., T = 1 h): 0.05%
- Assay Ticagrelor ([2]; Bulk hold 45° C., T = 1 h): 107.87%
- Sum Impurities >0.05 ([2]; Bulk hold 45° C., T = 1 h): 0.12%
- Total Impurities ([2]; Bulk hold 45° C., T = 1 h): 0.20%
- Triol impurity ([2]; Bulk hold 45° C., T = 1 h): 0.04%
- Unnamed impurity, relative retention time 1.33 ([2]; Bulk hold 45° C., T = 1 h): 0.07%
- Acetal impurity ([2]; Bulk hold 45° C., T = 110 h): 0.04%
- Amine impurity ([2]; Bulk hold 45° C., T = 110 h): 0.07%
- Assay Ticagrelor ([2]; Bulk hold 45° C., T = 110 h): 109.10%
- Sum Impurities >0.05 ([2]; Bulk hold 45° C., T = 110 h): 0.11%
- Total Impurities ([2]; Bulk hold 45° C., T = 110 h): 0.28%
- Triol impurity ([2]; Bulk hold 45° C., T = 110 h): 0.05%
- Unnamed impurity, relative retention time 1.33 ([2]; Bulk hold 45° C., T = 110 h): 0.03%
- Acetal impurity ([2]; Bulk hold at 30° C., T0): 0.04%
- Amine impurity ([2]; Bulk hold at 30° C., T0): 0.06%
- Assay Ticagrelor ([2]; Bulk hold at 30° C., T0): 105.60%
- Regiomer impurity ([2]; Bulk hold at 30° C., T0): 0.00%
- Sum Impurities >0.05 ([2]; Bulk hold at 30° C., T0): 0.10%
- Total Impurities ([2]; Bulk hold at 30° C., T0): 0.21%
- Triol impurity ([2]; Bulk hold at 30° C., T0): 0.05%
- Acetal impurity ([2]; Bulk hold at 30° C., T4 W): 0.04%
- Amine impurity ([2]; Bulk hold at 30° C., T4 W): 0.06%
- Assay Ticagrelor ([2]; Bulk hold at 30° C., T4 W): 106.14%
- Regiomer impurity ([2]; Bulk hold at 30° C., T4 W): 0.00%
- Sum Impurities >0.05 ([2]; Bulk hold at 30° C., T4 W): 0.06%
- Total Impurities ([2]; Bulk hold at 30° C., T4 W): 0.21%
- Triol impurity ([2]; Bulk hold at 30° C., T4 W): 0.04%
- Acetal impurity ([2]; sealed vials, T = 1 M, 25° C.): 0.03%
- Amine impurity ([2]; sealed vials, T = 1 M, 25° C.): 0.06%
- Assay Ticagrelor ([2]; sealed vials, T = 1 M, 25° C.): 107.22%
- Regiomer impurity ([2]; sealed vials, T = 1 M, 25° C.): 0.03%
- Sum Impurities >0.05 ([2]; sealed vials, T = 1 M, 25° C.): 0.06%
- Total Impurities ([2]; sealed vials, T = 1 M, 25° C.): 0.23%
- Triol impurity ([2]; sealed vials, T = 1 M, 25° C.): 0.01%
- Unnamed impurity, relative retention time 1.03 ([2]; sealed vials, T = 1 M, 25° C.): 0.02%
- Unnamed impurity, relative retention time 1.33 ([2]; sealed vials, T = 1 M, 25° C.): 0.03%
- Acetal impurity ([2]; sealed vials, T = 1 M, 40° C.): 0.00%
- Amine impurity ([2]; sealed vials, T = 1 M, 40° C.): 0.06%
- Assay Ticagrelor ([2]; sealed vials, T = 1 M, 40° C.): 105.16%
- Regiomer impurity ([2]; sealed vials, T = 1 M, 40° C.): 0.08%
- Sum Impurities >0.05 ([2]; sealed vials, T = 1 M, 40° C.): 0.21%
- Total Impurities ([2]; sealed vials, T = 1 M, 40° C.): 0.28%
- Triol impurity ([2]; sealed vials, T = 1 M, 40° C.): 0.00%
- Unnamed impurity, relative retention time 1.03 ([2]; sealed vials, T = 1 M, 40° C.): 0.02%
- Unnamed impurity, relative retention time 1.33 ([2]; sealed vials, T = 1 M, 40° C.): 0.08%
- Time for 10 mg ticagrelor to dissolve [3]: 5 to 10 min
